Values after ≈ are worked out from the molar mass of the structure shown. Read-outs that look alike come from different tables or passages of the source. Values belong to the compound of their own block, whether it stands above or below them.
Assays:
Baccilus megaterium = assay: Minimum inhibitory concentration against Bacillus megaterium; assay type: cell-based; conditions: Priestia megaterium, read-out: Minimum Inhibitory Conc
Experimental: (§1) All of the minimum inhibitory concentration determinations were made in a nutrient-rich growth medium in the following manner. Each organism was inoculated into a nutrient-rich medium that supported its growth. Various concentrations of a solution of the antimicrobial in THFA (90% THFA, 10% antimicrobial) were dosed into the inoculated growth medium; inoculated media were also dosed only with THFA (no antimicrobial)to serve as controls. Two concentrations of antimicrobial were recorded for each organism after growth in the controls was visible (the lowest concentration that prevented growth and the highest concentration that allowed growth); the MIC is reported as the range between these concentrations.

Chlorella pyrenoidosa = assay: Minimum inhibitory concentration against Chlorella pyrenoidosa; assay type: cell-based; conditions: Auxenochlorella pyrenoidosa
Experimental: as §1

Pseudomonas aeruginosa [1] = assay: Minimum inhibitory concentration against Pseudomonas aeruginosa; assay type: cell-based
Experimental: as §1

Pseudomonas aeruginosa [2] = assay: Contact time required for 99.9% reduction in viability of Pseudomonas aeruginosa in water; assay type: cell-based
Experimental: Virtually all modern water treatment applications are alkaline. Even in an alkaline condition, BNEF is quite active. Data in Table 2 show the contact time of BNEF required for a 99.9% reduction in Viability of Pseudomonas aeruginosa in water. Several pure culture cell suspensions of Pseudomonas aeruginosa were prepared in phosphate-buffered water that had been adjusted to pH 7.0 or pH 8.1. The initial concentration of viable cells was determined by counting colony forming-units in the standard spread plate method. A tetrahydrofurfuryl alcohol (THFA) solution containing the antimicrobial (90% THFA, 10% antimicrobial) was added to cell suspensions at each pH such that 10 ppm of the antimicrobial was dosed. Similarly, THFA was added without antimicrobial to cell suspensions at each pH value to serve as no-treatment controls. The concentration of viable cells was then determined at regular time intervals for all of the cell suspensions until at least 99.9% reduction in viability (compared to the controls) was achieved by the antimicrobial treatment.

[3] = Kinetics of disinfection in phosphate buffer (FIG. 5); assay type: cell-based; conditions: 10 ppm (w/v); phosphate buffer pH 7.0
Source text: FIG. 5 is a graph showing the kinetics of disinfection of 2-(2-bromo-2-nitroethenyl)-furan in comparison to its styrene analogue.

fungi = assay: Metal working fluid preservation test, fungi; assay type: cell-based, fungi isolated from metalworking fluids; conditions: soluble oil, semisynthetic, and synthetic fluids; 72 hours, room temperature
Experimental: (§2) In addition to pulp and paper manufacturing, BNEF can be used as a metal working fluid preservative. […] These tests were performed in the following manner. A typical soluble oil, semi-synthetic, and synthetic metalworking fluid were prepared with tap water at a ratio of 20:1. A field sample of "spoiled" fluid was mixed with a nutrient broth (50/50) and incubated for 24 hours to serve as the bacterial inoculum. Fungi isolated from metalworking fluids were grown on agar plates. The fungi were harvested into a suspension which then served as the fungal inoculum. At time zero, 50 ml aliquots of each fluid were prepared. The fluids were inoculated and dosed with the antimicrobial agent at different concentrations. Time zero bacterial and fungal counts were taken on each control fluid. The samples were then placed on a mechanical shaker (at room temperature) for 72 hours. Bacterial and fungal counts were then performed. The preferred level of BNEF in this application is in the range of 10 to 100 ppm.

Rhizoctonia sp. = assay: Minimum inhibitory concentration against Rhizoctonia sp.; assay type: cell-based; conditions: Table 3, nutrient-rich growth medium, fungus
Experimental: as §1

Xanthomonas palargonii = assay: Minimum inhibitory concentration against Xanthomonas palargonii; assay type: cell-based; conditions: Table 3, nutrient-rich growth medium, bacterium
Experimental: as §1

Saccharomyces sp. = assay: Minimum inhibitory concentration against Saccharomyces sp.; assay type: cell-based; conditions: Table 3; nutrient-rich growth medium; fungus (yeast)
Experimental: as §1

[4] = system: Photobacterium phosphoreum; assay: Minimum inhibitory concentration against Photobacterium phosphoreum; assay type: cell-based; conditions: Table 3, nutrient-rich growth medium, bacterium
Experimental: as §1

bacteria and algae = assay: Antimicrobial activity, general statement
Pseudomonas aeruginosa [5] = assay: Viability of Pseudomonas aeruginosa in phosphate buffered water (FIG. 1); assay type: cell-based; conditions: after 6 hours of contact, pH 7.2
Experimental: FIG. 1 illustrates a decrease in the viability of Pseudomonas aeruginosa, a common bacterial genus found in industrial cooling water upon contact with different concentrations of BNEF. The experiment was performed in phosphate buffered water at a pH of 7.2.

bacteria = assay: Metal working fluid preservation test, bacteria (FIG. 3); assay type: cell-based, bacteria from spoiled metal working fluid; conditions: soluble oil, semisynthetic, and synthetic fluids; 72 hours, room temperature
Experimental: as §2

Staphylococcus aureus = assay: Minimum inhibitory concentration against Staphylococcus aureus; assay type: cell-based; conditions: Table 3, nutrient-rich growth medium, bacterium
Experimental: as §1

[6] = system: Agrobacterium tumefaciens; assay: Minimum inhibitory concentration against Agrobacterium tumefaciens; assay type: cell-based; conditions: Table 3, nutrient-rich growth medium, bacterium
Experimental: as §1

[7] = ASTM Pulp and Paper efficacy test (ASTM E600-85); assay type: cell-based; conditions: compared with two commercially successful antimicrobials
Source text: BNEF can also be used as an antimicrobial in pulp and paper manufacturing applications.

[8] = system: Xanthomonas poinsettiacola; assay: Minimum inhibitory concentration against Xanthomonas poinsettiacola; assay type: cell-based; conditions: Table 3, nutrient-rich growth medium, bacterium
Experimental: as §1

Alternaria solani = assay: Minimum inhibitory concentration against Alternaria solani; assay type: cell-based; conditions: Table 3, nutrient-rich growth medium, fungus
Experimental: as §1

Erwina anylovora = assay: Minimum inhibitory concentration against Erwina anylovora; assay type: cell-based; conditions: Table 3; nutrient-rich growth medium; bacterium
Experimental: as §1

Xanthomonas prunii = assay: Minimum inhibitory concentration against Xanthomonas prunii; assay type: cell-based; conditions: Table 3, nutrient-rich growth medium, bacterium
Experimental: as §1

Erwina chysanthemi = assay: Minimum inhibitory concentration against Erwina chysanthemi; assay type: cell-based; conditions: Table 3; nutrient-rich growth medium; bacterium
Experimental: as §1

Erwina caratovora = assay: Minimum inhibitory concentration against Erwina caratovora; assay type: cell-based; conditions: Table 3; nutrient-rich growth medium; bacterium
Experimental: as §1

[9] = system: Desulfovibro desulfuricans; assay: Minimum inhibitory concentration against Desulfovibro desulfuricans; assay type: cell-based; conditions: Table 3; nutrient-rich growth medium; bacterium
Experimental: as §1

[10] = system: naturally occurring microorganism in industrial cooling water; assay: Efficacy in industrial cooling water, ASTM E-645-85 method (FIG. 4); assay type: cell-based; conditions: 5 ppm, 24 hours of contact
Source text: FIG. 4 is a graph showing the efficacy of 2-(2-bromo-2-nitroethenyl)-furan in industrial cooling water applications according to the ASTM E-645-85 method.
BNEF can also be used in water treatment such as for example treatment of industrial cooling water. […] Shorter contact times require a higher concentration of BNEF in the application. Preferably an antimicrobially effective amount of BNEF should be added to reduce the viability of microorganisms by at least 90 percent. It is especially preferred to employ about 1 ppm to about 5 ppm of BNEF.

Trichoderma virde = assay: Minimum inhibitory concentration against Trichoderma virde; assay type: cell-based; conditions: Table 3, nutrient-rich growth medium, fungus
Experimental: as §1

Asperillus niger = assay: Minimum inhibitory concentration against Asperillus niger; assay type: cell-based; conditions: Table 3; nutrient-rich growth medium; fungus
Experimental: as §1

[11] = Table 1, Chlorella pyrenoidosa, read-out: Minimum Inhibitory Conc
[12] = Table 1, read-out: Minimum Inhibitory Conc
[13] = Table 4, analogues, read-out: MIC Against Pseudomonas aeruginosa
[14] = read-out: Minimum Inhibitory Conc

SMILES: O=[N+]([O-])C(Br)=Cc1ccc(Br)o1 [5-bromo-2-(2-bromo-2-nitroethenyl)-furan]
MIC (Pseudomonas aeruginosa [1]; [13]): 10 to 20 µg/mL (≈ 33.7 to 67.4 µM)

SMILES: O=[N+]([O-])C(Br)=Cc1cccs1 [2-(2-bromo-2-nitroethenyl)-thiophene]
MIC (Pseudomonas aeruginosa [1]; [13]): 21 to 42 µg/mL (≈ 89.7 to 179 µM)

SMILES: O=[N+]([O-])C(Br)=Cc1ccccc1 [β-bromo-β-nitrostyrene, reference compound]
disinfection rate, effect of higher pH (Pseudomonas aeruginosa [2]; β-bromo-β-nitrostyrene, source of finding not stated): Increased disinfection rate with higher pH

SMILES: O=[N+]([O-])C(Br)=Cc1ccco1 [BNEF, 2-(2-bromo-2-nitroethenyl)-furan]
effectiveness compared to β-bromo-β-nitrostyrene [3]: as effective as an antimicrobial in water treatment application as β-bromo-β-nitrostyrene | effectiveness in metal working fluids against fungi (fungi): effective | MIC (Rhizoctonia sp.): < 1 µg/mL | MIC (Xanthomonas palargonii): 1 to 2 µg/mL (≈ 4.59 to 9.17 µM) | MIC (Saccharomyces sp.): < 3 µg/mL | MIC [4]: 1 to 5 µg/mL (≈ 4.59 to 22.9 µM) | antimicrobial activity (bacteria and algae; summary of Table 1): active at very low concentrations | concentration required to eliminate 99.9% of the test inoculum (Pseudomonas aeruginosa [5]): about 10 ppm | effectiveness in metal working fluids against bacteria (bacteria): effective | MIC (Baccilus megaterium; Table 1, Baccilus megaterium): 5 to 10 µg/mL (≈ 22.9 to 45.9 µM) | MIC (Staphylococcus aureus): 3 to 7.6 µg/mL (≈ 13.8 to 34.9 µM) | MIC (Chlorella pyrenoidosa; [11]): 4 to 16 µg/mL (≈ 18.3 to 73.4 µM) | MIC (Chlorella pyrenoidosa; Table 3, nutrient-rich growth medium, algae, read-out: MIC): 4 to 16 µg/mL (≈ 18.3 to 73.4 µM) | MIC [6]: 0.5 to 1 µg/mL (≈ 2.29 to 4.59 µM) | activity in Pulp and Paper efficacy test [7]: at least as active as two commercially successful antimicrobials | MIC [8]: 0.5 to 1 µg/mL (≈ 2.29 to 4.59 µM) | MIC (Alternaria solani): < 1 µg/mL | MIC (Erwina anylovora): < 0.5 µg/mL | MIC (Xanthomonas prunii): 2 to 5 µg/mL (≈ 9.17 to 22.9 µM) | MIC (Erwina chysanthemi): 0.5 to 1 µg/mL (≈ 2.29 to 4.59 µM) | MIC (Pseudomonas aeruginosa [1]; [12]): 5 to 10 µg/mL (≈ 22.9 to 45.9 µM) | Required Contact Time (99.9% reduction) (Pseudomonas aeruginosa [2]; 10 ppm, pH 7.0, Initial Cell Concentration 3.2 × 10^4): 5 h | Required Contact Time (99.9% reduction) (Pseudomonas aeruginosa [2]; 10 ppm, pH 8.1, Initial Cell Concentration ~1.0 × 10^4): 1 h | disinfection rate, effect of pH (Pseudomonas aeruginosa [2]; 10 ppm, pH level of 8 compared to pH level of 7): faster at a pH level of 8 | MIC (Erwina caratovora): 0.5 to 1 µg/mL (≈ 2.29 to 4.59 µM) | MIC [9]: < 2 µg/mL | reduction in viability [10]: ~99% | MIC (Trichoderma virde): < 5 µg/mL | MIC (Asperillus niger): < 1 µg/mL

SMILES: O=[N+]([O-])C=Cc1ccco1 [2-nitro-1-(2-furyl)ethylene, reference compound]
antimicrobial activity relative to BNEF (bacteria and algae; background statement): lower antimicrobial activity | MIC (Baccilus megaterium; Table 1, Baccilus megaterium): 63 to 125 µg/mL (≈ 453 to 899 µM) | MIC (Chlorella pyrenoidosa; [11]): 16 to 63 µg/mL (≈ 115 to 453 µM) | MIC (Pseudomonas aeruginosa [1]; [12]): 63 to 125 µg/mL (≈ 453 to 899 µM)

SMILES: O=CC=Cc1ccco1 [3-(2-furyl)acrolein]
MIC (Baccilus megaterium): 250 to 500 µg/mL (≈ 2050 to 4090 µM) | MIC (Chlorella pyrenoidosa; [14]): 16 to 63 µg/mL (≈ 131 to 516 µM) | MIC (Pseudomonas aeruginosa [1]; [14]): 250 to 500 µg/mL (≈ 2050 to 4090 µM)

SMILES: O=[N+]([O-])C(Br)=Cc1ccc([N+](=O)[O-])o1 [5-nitro-2-(2-bromo-2-nitroethenyl)-furan]
MIC (Pseudomonas aeruginosa [1]; read-out: MIC Against Pseudomonas aeruginosa): 8 to 16 µg/mL (≈ 30.4 to 60.8 µM)

Further lines, results first:

MIC (Baccilus megaterium; Table 1, Baccilus megaterium): > 1000 µg/mL | MIC (Chlorella pyrenoidosa; [11]): 250 to 1000 µg/mL (≈ 2660 to 10600 µM) | MIC (Pseudomonas aeruginosa [1]; [12]): > 1000 µg/mL
SMILES: C=Cc1ccco1 [furylethylene]

MIC (Baccilus megaterium; Table 1, Baccilus megaterium): 3 to 6 µg/mL (≈ 21.3 to 42.5 µM) | MIC (Chlorella pyrenoidosa; [11]): 4 to 16 µg/mL (≈ 28.4 to 113 µM) | MIC (Pseudomonas aeruginosa [1]; [12]): 6 to 12 µg/mL (≈ 42.5 to 85.1 µM)
SMILES: O=Cc1ccc([N+](=O)[O-])o1 [5-nitro-2-furaldehyde]

MIC (Pseudomonas aeruginosa [1]; [13]): 21 to 42 µg/mL (≈ 90.5 to 181 µM)
SMILES: Cc1ccc(C=C(Br)[N+](=O)[O-])o1 [5-methyl-2-(2-bromo-2-nitroethenyl)-furan]

Source: patent US4965377A, “Process of forming 2-(2-bromo-2-nitroethenyl)-furan” (Great Lakes Chemical Corporation, priority 1989, dated 1990)
